In the NIST ThermoML archive (doi:10.1016/j.jct.2009.01.014):
Values joined by “and” are separate entries in the source; they are usually repeats but may differ in a detail not shown here. Identical values can stand only once. ± gives the expanded uncertainty stated by the source.

Assay: molar heat capacity at constant pressure
Details: 101.33 kPa, Crystal 1, Vacuum adiabatic calorimetry

[Al+3].[Al+3].[Co+2].[O-2].[O-2].[O-2].[O-2] [aluminium cobalt oxide]
Details	molar heat capacity at constant pressure
146.83 K	57.16 ± 0.29 J/K/mol
147.05 K	57.28 ± 0.29 J/K/mol
149.96 K	58.88 ± 0.3 J/K/mol
150 K	58.9 ± 0.3 J/K/mol
150.67 K	59.3 ± 0.3 J/K/mol
152.88 K	60.51 ± 0.3 J/K/mol
154.53 K	61.45 ± 0.31 J/K/mol
155.79 K	62.12 ± 0.31 J/K/mol
158.38 K	63.57 ± 0.32 J/K/mol
158.7 K	63.68 ± 0.32 J/K/mol
160 K	64.37 ± 0.32 J/K/mol
161.62 K	65.3 ± 0.32 J/K/mol
162.25 K	65.67 ± 0.32 J/K/mol
164.55 K	66.89 ± 0.33 J/K/mol
166.11 K	67.74 ± 0.33 J/K/mol
167.47 K	68.46 ± 0.33 J/K/mol
169.98 K	69.8 ± 0.34 J/K/mol
170 K	69.81 ± 0.34 J/K/mol
170.39 K	70.02 ± 0.34 J/K/mol
173.28 K	71.53 ± 0.34 J/K/mol
173.86 K	71.81 ± 0.35 J/K/mol
176.14 K	73.02 ± 0.35 J/K/mol
177.74 K	73.82 ± 0.35 J/K/mol
178.97 K	74.47 ± 0.36 J/K/mol
180 K	74.99 ± 0.36 J/K/mol
181.6 K	75.79 ± 0.36 J/K/mol
181.77 K	75.91 ± 0.36 J/K/mol
184.55 K	77.27 ± 0.37 J/K/mol
185.41 K	77.67 ± 0.37 J/K/mol
187.3 K	78.65 ± 0.37 J/K/mol
189.19 K	79.56 ± 0.37 J/K/mol
190 K	79.97 ± 0.38 J/K/mol
190.03 K	79.99 ± 0.38 J/K/mol
192.74 K	81.28 ± 0.38 J/K/mol
192.91 K	81.34 ± 0.38 J/K/mol
195.43 K	82.61 ± 0.39 J/K/mol
196.6 K	83.11 ± 0.39 J/K/mol
198.09 K	83.83 ± 0.39 J/K/mol
200 K	84.73 ± 0.39 J/K/mol
200.24 K	84.85 ± 0.39 J/K/mol
200.74 K	85.08 ± 0.4 J/K/mol
203.36 K	86.29 ± 0.4 J/K/mol
203.85 K	86.5 ± 0.4 J/K/mol
205.97 K	87.49 ± 0.4 J/K/mol
207.42 K	88.12 ± 0.41 J/K/mol
208.56 K	88.63 ± 0.41 J/K/mol
210 K	89.28 ± 0.41 J/K/mol
210.96 K	89.71 ± 0.41 J/K/mol
211.13 K	89.82 ± 0.41 J/K/mol
213.68 K	90.9 ± 0.42 J/K/mol
214.47 K	91.27 ± 0.42 J/K/mol
216.22 K	92.07 ± 0.42 J/K/mol
217.95 K	92.81 ± 0.43 J/K/mol
218.74 K	93.14 ± 0.43 J/K/mol
220 K	93.68 ± 0.43 J/K/mol
221.25 K	94.2 ± 0.43 J/K/mol
221.4 K	94.18 ± 0.43 J/K/mol
223.74 K	95.23 ± 0.43 J/K/mol
224.82 K	95.65 ± 0.44 J/K/mol
226.22 K	96.27 ± 0.44 J/K/mol
228.21 K	97.04 ± 0.44 J/K/mol
228.69 K	97.25 ± 0.44 J/K/mol
230 K	97.8 ± 0.44 J/K/mol
231.14 K	98.26 ± 0.45 J/K/mol
231.58 K	98.37 ± 0.45 J/K/mol
233.58 K	99.23 ± 0.45 J/K/mol
234.92 K	99.71 ± 0.45 J/K/mol
236.01 K	100.16 ± 0.45 J/K/mol
238.24 K	101.02 ± 0.46 J/K/mol
238.42 K	101.09 ± 0.46 J/K/mol
240 K	101.73 ± 0.46 J/K/mol
240.83 K	102.05 ± 0.46 J/K/mol
241.54 K	102.25 ± 0.46 J/K/mol
243.22 K	102.92 ± 0.46 J/K/mol
244.81 K	103.49 ± 0.47 J/K/mol
245.59 K	103.81 ± 0.47 J/K/mol
247.96 K	104.73 ± 0.47 J/K/mol
248.06 K	104.72 ± 0.47 J/K/mol
250 K	105.45 ± 0.47 J/K/mol
250.32 K	105.57 ± 0.47 J/K/mol
251.29 K	105.92 ± 0.48 J/K/mol
252.67 K	106.55 ± 0.48 J/K/mol
254.51 K	106.81 ± 0.48 J/K/mol
255.02 K	106.86 ± 0.48 J/K/mol
257.35 K	107.86 ± 0.48 J/K/mol
257.71 K	108 ± 0.48 J/K/mol
259.68 K	108.69 ± 0.49 J/K/mol
260 K	108.81 ± 0.49 J/K/mol
260.89 K	109.14 ± 0.49 J/K/mol
261.99 K	109.47 ± 0.49 J/K/mol
264.06 K	110.17 ± 0.49 J/K/mol
264.3 K	110.3 ± 0.49 J/K/mol
266.6 K	111.11 ± 0.5 J/K/mol
267.21 K	111.27 ± 0.5 J/K/mol
268.89 K	111.88 ± 0.5 J/K/mol
270 K	112.21 ± 0.5 J/K/mol
270.34 K	112.32 ± 0.5 J/K/mol
271.18 K	112.63 ± 0.5 J/K/mol
273.45 K	113.32 ± 0.5 J/K/mol and 113.36 ± 0.5 J/K/mol
275.72 K	114.12 ± 0.51 J/K/mol
276.55 K	114.32 ± 0.51 J/K/mol
277.98 K	114.86 ± 0.51 J/K/mol
279.64 K	115.3 ± 0.51 J/K/mol
280 K	115.49 ± 0.51 J/K/mol
280.23 K	115.61 ± 0.51 J/K/mol
282.47 K	116.23 ± 0.52 J/K/mol
282.71 K	116.25 ± 0.52 J/K/mol
284.71 K	117.01 ± 0.52 J/K/mol
285.76 K	117.27 ± 0.52 J/K/mol
286.94 K	117.64 ± 0.52 J/K/mol
288.8 K	118.11 ± 0.52 J/K/mol
289.16 K	118.27 ± 0.52 J/K/mol
290 K	118.56 ± 0.53 J/K/mol
291.38 K	118.88 ± 0.53 J/K/mol
291.83 K	118.87 ± 0.53 J/K/mol
293.59 K	119.39 ± 0.53 J/K/mol
294.84 K	119.71 ± 0.53 J/K/mol
295.8 K	120.14 ± 0.53 J/K/mol
297.85 K	120.6 ± 0.53 J/K/mol
298 K	120.75 ± 0.53 J/K/mol
298.15 K	120.8 ± 0.53 J/K/mol
300 K	121.29 ± 0.54 J/K/mol
300.19 K	121.32 ± 0.54 J/K/mol
300.84 K	121.4 ± 0.54 J/K/mol
302.38 K	121.76 ± 0.54 J/K/mol
304.56 K	122.44 ± 0.54 J/K/mol
306.74 K	123.1 ± 0.54 J/K/mol
308.91 K	123.82 ± 0.55 J/K/mol
310 K	124.03 ± 0.55 J/K/mol
311.08 K	124.21 ± 0.55 J/K/mol
314.58 K	125.39 ± 0.55 J/K/mol
316.31 K	125.57 ± 0.55 J/K/mol
318.27 K	126.1 ± 0.55 J/K/mol
320 K	126.56 ± 0.56 J/K/mol
320.27 K	126.63 ± 0.56 J/K/mol
322.26 K	127.06 ± 0.56 J/K/mol
324.24 K	127.71 ± 0.56 J/K/mol
326.23 K	128.15 ± 0.56 J/K/mol
328.22 K	128.71 ± 0.56 J/K/mol
330 K	129.18 ± 0.57 J/K/mol
330.21 K	129.23 ± 0.57 J/K/mol
332.21 K	129.58 ± 0.57 J/K/mol
334.2 K	130.14 ± 0.57 J/K/mol
336.19 K	130.48 ± 0.57 J/K/mol
338.18 K	131.04 ± 0.57 J/K/mol
340 K	131.5 ± 0.58 J/K/mol
340.18 K	131.54 ± 0.58 J/K/mol
342.17 K	132 ± 0.58 J/K/mol
344.16 K	132.51 ± 0.58 J/K/mol
346.15 K	132.95 ± 0.58 J/K/mol
348.15 K	133.41 ± 0.58 J/K/mol
350 K	133.79 ± 0.58 J/K/mol
350.14 K	133.82 ± 0.59 J/K/mol
352.14 K	134.31 ± 0.59 J/K/mol
354.14 K	134.84 ± 0.59 J/K/mol
356.13 K	135.27 ± 0.59 J/K/mol
358.13 K	135.71 ± 0.59 J/K/mol
360 K	136.1 ± 0.59 J/K/mol
360.13 K	136.12 ± 0.59 J/K/mol
362.13 K	136.47 ± 0.6 J/K/mol
364.13 K	136.92 ± 0.6 J/K/mol
366.13 K	137.31 ± 0.6 J/K/mol
368.13 K	137.72 ± 0.6 J/K/mol
370 K	138.26 ± 0.6 J/K/mol
370.14 K	138.29 ± 0.6 J/K/mol
372.14 K	138.51 ± 0.6 J/K/mol
374.14 K	138.93 ± 0.61 J/K/mol
376.14 K	139.33 ± 0.61 J/K/mol
378.15 K	139.67 ± 0.61 J/K/mol
380 K	140.09 ± 0.61 J/K/mol
380.15 K	140.12 ± 0.61 J/K/mol
382.16 K	140.49 ± 0.61 J/K/mol
384.17 K	140.86 ± 0.61 J/K/mol
386.17 K	141.18 ± 0.61 J/K/mol
388.18 K	141.53 ± 0.62 J/K/mol
390 K	141.96 ± 0.62 J/K/mol
390.19 K	142 ± 0.62 J/K/mol
392.2 K	142.2 ± 0.62 J/K/mol
394.22 K	142.53 ± 0.62 J/K/mol
396.23 K	142.78 ± 0.62 J/K/mol
398.24 K	143.19 ± 0.62 J/K/mol
400.25 K	143.52 ± 0.62 J/K/mol
